Experimental data published in patent US10047105B2, “Gyrase inhibitors” (Merck Sharp & Dohme Corp., priority 2009, dated 2018).
In brackets after ≈: the same amount, converted by molar mass.

Legend:
Type in all cases: cell-based
[1] = system: S. aureus ATCC 13709; assay: MIC, antibacterial potency, S. aureus; conditions: for MIC: Staphylococcus aureus, ATCC13709, S. aureus; for MIC, SA: S. aureus (SA), in µg/mL
[2] = system: S. aureus ATCC 13709 (SA + serum); assay: MIC, S. aureus + 20% mouse serum; conditions: Staphylococcus aureus, ATCC13709; S. aureus + serum (20% mouse serum); read-out: Antibacterial Potency MIC
[3] = system: S. pneumoniae ATCC 51916; assay: MIC, S. pneumoniae; conditions: for MIC: Streptococcus pneumoniae, ATCC51916, S. pneumoniae, read-out: Antibacterial Potency MIC; for MIC Spn52: S. pneumoniae (Spn52), in µg/mL
[4] = system: H. influenzae ATCC 49247; assay: MIC, H. influenzae; conditions: Haemophilus influenzae, ATCC49247, read-out: Antibacterial Potency MIC
[5] = system: E. coli 8 ATCC 25922; assay: MIC, E. coli 8 (wt); conditions: for MIC: Escherichia coli, ATCC25922, E. coli (wt), read-out: Antibacterial Potency MIC; for MIC EC8: E. coli 8 (EC8)
[6] = system: E. coli ATCC 25922 (EC8 + serum); assay: MIC, E. coli + 20% mouse serum; conditions: Escherichia coli, ATCC25922; E. coli + serum (20% mouse serum); read-out: Antibacterial Potency MIC
[7] = system: E. coli Δtolc BW25113 Δtolc; assay: microbe, parasite or virus in culture; conditions: Escherichia coli, BW25113, read-out: Antibacterial Potency MIC
[8] = system: E. coli imp Benson BAS849; assay: microbe, parasite or virus in culture; conditions: Escherichia coli, read-out: Antibacterial Potency MIC
[9] = system: K. pneumoniae 11; assay: MIC, K. pneumoniae 11; conditions: Klebsiella pneumoniae, read-out: Antibacterial Potency MIC
[10] = system: K. pneumoniae 101; assay: MIC, K. pneumoniae 101; conditions: Klebsiella pneumoniae, read-out: Antibacterial Potency MIC
[11] = system: A. baumannii ATCC 19606; assay: MIC, A. baumannii; conditions: Acinetobacter baumannii, ATCC19606, read-out: Antibacterial Potency MIC
[12] = system: P. aeruginosa ATCC 15692; assay: MIC, P. aeruginosa (wt); conditions: Pseudomonas aeruginosa, ATCC15692, read-out: Antibacterial Potency MIC

Structure (SMILES) | MIC, SA [1] | MIC Spn52 [3] | MIC EC8 [5] [µg/mL] | further results
CCc1[nH]c2nc(Sc3cnc4ccc[n+]([O-])c4c3)nc(N3CC[C@@H](N)C3)c2c1Cl [701,008] | – | – | – | MIC [1]: ≤ 0.5 µg/mL; MIC [2]: ≤ 0.5 µg/mL; MIC [3]: 1 µg/mL (≈ 2.26 µM); MIC [4]: 2 µg/mL (≈ 4.53 µM); MIC [5]: 4 µg/mL (≈ 9.05 µM); MIC [6]: 2 µg/mL; MIC [7]: ≤ 0.5 µg/mL; MIC [8]: 1 µg/mL (≈ 2.26 µM); MIC [9]: 32 µg/mL (≈ 72.4 µM); MIC [10]: ≤ 0.5 µg/mL; MIC [11]: 8 µg/mL (≈ 18.1 µM); MIC [12]: 16 µg/mL (≈ 36.2 µM)
CCc1[nH]c2nc(Oc3ccc4nccnc4c3)nc(Oc3ccc(C#N)cc3Cl)c2c1Cl [701,286] | >64 | >64 | > 64 | –
CCc1[nH]c2nc(Oc3ccc4nccnc4c3)nc(Oc3ccc(C#N)cc3Cl)c2c1Br [701,287] | >64 | >64 | > 64 | –
CCc1[nH]c2nc(Oc3cnc(C)nc3)nc(Oc3cc(C#N)ccc3F)c2c1Br [701,288] | <=0.5 | 1 | > 64 | –
CCc1[nH]c2nc(Oc3ccc4nccnc4c3)nc(OC3CCN(C(=O)OC(C)(C)C)CC3)c2c1Cl [701,289] | 16 | >64 | > 64 | –
CCc1[nH]c2nc(Oc3ccc4nccnc4c3)nc(OC3CCNCC3)c2c1Cl [701,290] | >64 | 64 | > 64 | –
CCc1[nH]c2nc(Oc3cnc(C)nc3)nc(OC3CCNC3)c2c1Cl (stereo not drawn) [701,291] | 32 | 16 | 64 (≈ 171 µM) | –
CCc1[nH]c2nc(Sc3cnc4c(c3)c(=O)ncn4C)nc(N3CC4C(N)C4C3)c2c1C (stereo not drawn) [701,292] | 32 | >32 | > 32 | –
CCc1[nH]c2nc(Oc3cncnc3)nc(Oc3ccc4ncnc(N5CC(N)C5)c4c3)c2c1Cl [701,296] | 8 | 32 | > 64 | –
CCc1[nH]c2nc(Oc3cncnc3)nc(Oc3ccc4ncnc(N5CC(N)C5)c4c3)c2c1Br [701,297] | 4 | 16 | > 64 | –
CCc1[nH]c2nc(Oc3cncc(C#N)c3)nc(Oc3ccc4ncnc(N5CC(N)C5)c4c3)c2c1Br [701,298] | 2 | 4 | > 64 | –
CCc1[nH]c2nc(Oc3ccc4ncnc(N5CC(N)C5)c4c3)nc(Oc3cncc(C#N)c3)c2c1Br [701,299] | 2 | 4 | > 64 | –
CCc1[nH]c2nc(Sc3cnc4ccc[n+]([O-])c4c3)nc(N3CC[C@@H](N)C3)c2c1Cl [701008-2] | <=0.5 | 1 | 4 (≈ 9.05 µM) | –
CCc1[nH]c2nc(Sc3cnc4ccc[n+]([O-])c4c3)nc(N3CC4C(N)C4C3)c2c1Cl (stereo not drawn) [701009-2] | <=0.5 | <=0.5 | 2 (≈ 4.41 µM) | –
CCc1[nH]c2nc(Oc3cncnc3)nc(Oc3cc(O)cc(C#N)c3)c2c1Br [701249-2] | <=0.5 | <=0.5 | 4 (≈ 8.83 µM) | –
CCc1[nH]c2nc(Sc3cnc4ccc[n+]([O-])c4c3)nc(N3CC4C(N)C4C3)c2c1Cl (stereo not drawn) [compound 701009] | – | – | – | MIC [1]: ≤ 0.5 µg/mL; MIC [2]: ≤ 0.5 µg/mL; MIC [3]: ≤ 0.5 µg/mL; MIC [4]: 2 µg/mL (≈ 4.41 µM); MIC [5]: 2 µg/mL (≈ 4.41 µM); MIC [6]: 4 µg/mL; MIC [7]: ≤ 0.5 µg/mL; MIC [8]: ≤ 0.5 µg/mL; MIC [9]: 32 µg/mL (≈ 70.5 µM); MIC [10]: ≤ 0.5 µg/mL; MIC [11]: 4 µg/mL (≈ 8.81 µM); MIC [12]: 4 µg/mL (≈ 8.81 µM)
